Here are results for three substances from patent US7622551B2, “Leukocyte stimulating peptides” (POSCO, priority 2004, dated 2009).

Where no end group is shown, it is not given here.

One experiment has as its target T1, FPRL1 (Homo sapiens, UniProt P25090).
T1 construct: expressed in transfected cells; host or cells: RBL-2H3
T1 sequence (P25090 1-351): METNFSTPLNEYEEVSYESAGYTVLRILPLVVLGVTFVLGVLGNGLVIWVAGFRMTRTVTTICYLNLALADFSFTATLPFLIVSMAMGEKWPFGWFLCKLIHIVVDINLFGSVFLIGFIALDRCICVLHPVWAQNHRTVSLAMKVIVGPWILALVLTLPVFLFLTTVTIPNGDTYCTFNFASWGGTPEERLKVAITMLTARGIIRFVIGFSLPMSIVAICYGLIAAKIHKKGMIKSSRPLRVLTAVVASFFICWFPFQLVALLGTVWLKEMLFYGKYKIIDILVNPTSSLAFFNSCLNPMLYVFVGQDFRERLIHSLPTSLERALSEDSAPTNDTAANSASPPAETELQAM
In words: [Ca2+]i increase in FPRL1-expressing RBL-2H3 cells. The format is cell-based. Conditions: 10 μM of each peptide (FIG. 7). How it is done: (§1) U937 (human histiocytic lymphoma cells), HL60 (human promyelocytic leukemia cells), Raw 264.7 (mouse macrophage), Jurkat (human acute T cell leukemia), PC12 (rat adrenal pheochromocytoma cells), 3Y1 (Rat embryonic fibroblasts), 3T3L1 (preadipocytes), and NCI-H292 (human mucoepidermoid pulmonary carcinoma cells) were obtained from the American Type Culture Collection (Rockville, Md.) and maintained as recommended. FPR- or FPRL1 expressing RBL-2H3 cells were cultured as described previously (He et al. J. Immunol. 2000. 165: 4598-4605). Cells were maintained at about 1×10^6 cells/ml under standard incubator conditions (humidified atmosphere, 95% air, 5% CO2, at 37° C.). HL60 cells were induced to differentiate into the granulocyte phenotype by adding dimethylsulfoxide (DMSO) (final concentration 1.25%, v/v) for 4 days to the culture medium, as described previously (Itoh et al. Blood. 1998. 92: 1432-1441).
(§2) The level of [Ca^2+]i was determined using Grynkiewicz's method using fura-2/AM (Grynkiewicz et al. J. Biol. Chem. 1985. 260: 3440-3550). Briefly, prepared cells were incubated with 3 μM of fura-2/AM at 37° C. for 50 min in serum-free RPMI 1640 medium under continuous stirring. 2×10^6 cells were aliquoted for each assay in Ca^2+ free Locke's solution (154 mM NaCl, 5.6 mM KCl, 1.2 mM MgCl2, 5 mM HEPES, pH 7.3, 10 mM glucose, and 0.2 mM EGTA). Fluorescence changes were measured at the dual excitation wavelength of 340 nm and 380 nm, and the calculated fluorescence ratio was translated into [Ca^2+]i.

For the next experiment, the system named is human monocytes. In words: Chemotaxis assay (modified Boyden chamber), monocytes. The note with it: FIG. 6B; control peptide at concentrations less than 10 μM. The format is cell-based. How it is done:
FIGS. 6A and 6B show chemotactic effect of peptides. Assays were performed using a modified Boyden chamber assay, as described in the Examples. Isolated human neutrophils (A) or monocytes (B) (1×10^6 cells/ml in serum free RPMI) were added to the upper wells of a 96-well chemotaxis chamber and migration across a 3 μm pore size (5 μm for monocytes) polycarbonate membrane was assessed after 2 hrs incubation at 37° C. The numbers of migrated cells were determined by counting them in a high power field (400×). Results are presented as means±S.E. of three independent experiments each performed in duplicate.
Chemotaxis assays were performed using multiwell chambers (Neuroprobe Inc., Gaithersburg, Md.) (Bae et al. Blood. 2001. 97: 2854-2862). Briefly, prepared human monocytes were suspended in RPMI at a concentration of 1×10^6 cells/ml, and 25 μl of the suspension was then placed onto the upper well of a chamber separated by a 5 μm polyhydrocarbon filter (3 μm pores size not polyvinylpyrrolidone coated, as is needed for neutrophils) from peptides or N-formyl-methionyl-leucyl-phenylalanine (fMLF) in the lower well. After incubation for 2 hours (90 minutes for neutrophils) at 37° C., non-migrated cells were removed by scraping, and cells that migrated across the filter were dehydrated, fixed, and stained with hematoxylin (Sigma, St. Louis, Mo.). Stained cells were counted in five randomly chosen high power fields (HPF) (400×) (Bae et al. Blood. 2001. 97: 2854-2862).

A further experiment concerns Raw 264.7. In words: [Ca2+]i rise in Raw 264.7 cells. The format is cell-based, mouse. The note with it: Raw 264.7, 10 μM (FIG. 5). The protocol: as §1
(§3) The level of [Ca^2+]i was determined using Grynkiewicz's method using fura-2/AM (Grynkiewicz et al. J. Biol. Chem. 1985. 260: 3440-3550). Briefly, prepared cells were incubated with 3 μM of fura-2/AM at 37° C. for 50 min in serum-free RPMI 1640 medium under continuous stirring. […] Fluorescence changes were measured at the dual excitation wavelength of 340 nm and 380 nm, and the calculated fluorescence ratio was translated into [Ca^2+]i.

A further experiment deals with PC12. In words: [Ca2+]i rise in PC12 cells. Conditions: PC12, 10 μM. The format is cell-based, rat. The protocol: as §1, §3
The test system of another experiment is Monocytes. In words: [Ca2+]i rise in monocytes. The format is cell-based, human. Conditions: 10 μM (FIG. 5). The protocol:
(§4) Peripheral blood leukocyte concentrates were donated by the Ulsan Red Cross Blood Center (Ulsan, Korea). PBMCs were separated on a Histopaque-1077 gradient. After two washings with HBSS without Ca^2+ and Mg^2+, the PBMCs were suspended in 10% FBS containing RPMI and incubated for 60 min at 37° C. to let the monocytes attach to the culture dish. Cells were washed 5 times with warmed RPMI medium to remove lymphocytes, and then the attached monocytes were collected, as described previously (Bae et al. J. Leukoc. Biol. 1999. 65: 241-248). Human neutrophils were isolated according to standard procedures; i.e., dextran sedimentation, hypotonic lysis of erythrocytes, and using a medium lymphocyte separation gradient, as described previously (Seo et al. J. Immunol. 1997. 158: 1895-1901). Isolated human leukocytes were then used promptly.
as §3

Another experiment relates to 3Y1. In words: [Ca2+]i rise in 3Y1 cells. The format is cell-based, Rat. The note with it: 3Y1, 10 μM. The protocol:
as §1, §3

The test system of another experiment is NCI-H292. In words: [Ca2+]i rise in NCI-H292 cells. The format is cell-based, human. The note with it: NCI-H292, 10 μM. How it is done: as §1, §3
The test system of another experiment is U937 cells. In words: [Ca2+]i rise in U937 cells. Conditions: 10 μM (FIG. 5). The format is cell-based, human. The protocol: as §1, §3
The next experiment relates to neutrophils. In words: [Ca2+]i rise in neutrophils. The format is cell-based, human. Conditions: 10 μM (FIG. 5). How it is done: as §4, §3
Another experiment concerns Jurkat cells. In words: [Ca2+]i rise in Jurkat cells. The format is cell-based, human. Conditions: 10 μM (FIG. 5). How it is done: as §1, §3
A further experiment deals with HUVEC. In words: [Ca2+]i rise in HUVEC. The format is cell-based. Conditions: 10 μM. How it is done: as §2

For the substance MKYYKM-NH2 [Peptide P21], the “[Ca^2+]i increase in FPRL1-expressing RBL-2H3 cells” value (“[Ca^2+]i increase” for short) with FPRL1 is given as “induced calcium increase”. The “Cellular chemotaxis in human monocytes (in words)” value (from here on “Cellular chemotaxis”) in the experiment with human monocytes is “induced cellular chemotaxis”.
In the case of MKYYYM-NH2 [Peptide P24], the “[Ca^2+]i increase” value with FPRL1 was “induced calcium increase”. Further, the “[Ca^2+]i rise” value with Raw 264.7 is recorded as “not activated”; in the experiment with PC12, “no response”; with Monocytes, “activated”; in the experiment with 3Y1, “no response”; in the experiment with NCI-H292 it was “no response”; in the experiment with U937 cells, “activated”. The “[Ca^2+]i rise” value in the experiment on neutrophils is “resulted in a [Ca^2+]i rise”; in the experiment on Jurkat cells, “not activated”; in the experiment on HUVEC, “no response”. Besides, in the experiment with human monocytes, the “Cellular chemotaxis” value is listed as “induced cellular chemotaxis”.
For RKYHVM-NH2 [Peptide P14], the “[Ca^2+]i increase” value with FPRL1 was “induced calcium increase”. Besides, in the experiment with human monocytes, the “Cellular chemotaxis” value is recorded as “induced cellular chemotaxis”.
